Test results from US20160022751A1, “NOVEL COMPOSITION FOR TREATING ALZHEIMER'S DISEASE AND IMPROVING COGNITIVE FUNCTION OF ALZHEIMER'S PATIENTS” (GANGNEUNG-WONJU NATIONAL UNIVERSITY INDUSTRY ACADEMY …, priority 2014, published 2016).

Experiments:
clathrin = experiment: Clathrin mRNA expression in HMO6 human microglial cells (qPCR); assay type: cell-based; conditions: Aβ42 (5 μM) and/or Rg3 (2.5 or 5 μg/ml), 24 h (FIG. 15C)
Procedure: FIG. 15 is a graph showing a change in the expression of caveolin-1, caveolin-2, clathrin, neprilysin (NEP), insulin-degrading enzyme (IDE) according to treating Aβ and/or ginsenoside Rg3 to HMO6 human microglial cells. HMO6 cells were plated on 35 mm cell culture plates or chamber slides and Aβ42 (5 μM) and/or Rg3 (2.5 or 5 μg/ml) were treated for 24 h. Then, the mRNA expression was determined by quantitative RT-PCR. The expression of caveolin (A-B), clathrin (C) which are endocytosis-related genes and NEP (D) and IDE (E) which are genes encoding Aβ-degrading enzymes were compared depending on the presence or absence of Rg3/Aβ42. The results are shown as mean±SD. * P<0.05, ** P<0.01, *** P<0.001. […]
Total RNA extracts from HMO6 cells or perfused brain tissue were prepared using the Trizol method (Invitrogen). cDNA was synthesized from RNA by reverse transcription of 1 μg total RNA using the Improm-II reverse transcription system (Promega, Wis., USA) and oligo dT primers in a total volume of 20 μl. […] Relative sample expression levels were calculated using Rotor-Gene 6000 Series Software 1.7 and were expressed relative to β-actin for mice or glyceraldehyde 3-phosphate dehydrogenase for HMO6 cells and corrected for between-run variability. Data for the experimental samples are expressed as a percentage of the internal control gene. […]

NEP = NEP protein expression in HMO6 cells (western blot, immunocytochemistry); assay type: cell-based, human; conditions: 5 μg/ml Rg3, 24 h (FIG. 19)
Procedure: FIG. 19 represents an images showing a result of western blot analysis of the expression of NEP (neprilysin) and IDE (insulin-degrading enzyme) in HMO6 cells (A); graphs representing the above result quantitatively (B and C), and fluorescence microscopic images representing immunocytochemical analyses (D and E). The expression of NEP and IDE in HMO6 cells was analyzed by western blot analysis and immunocytochemistry after treating Aβ42 (5 μM) or Rg3 (2.5 or 5 μg/ml) for 24 h to HMO6 cells in serum-free DMEM medium plated on 60 mm cell culture plates or chamber slides. The results are shown as mean±SD. * P<0.05, ** P<0.01, *** P<0.001.
HMO6 cells were lysed in 1% RIPA buffer containing protease and phosphatase inhibitors (Roche, Mannheim, Germany) and whole-cell lysates were separated on 10% sodium dodecyl sulfate-polyacrylamide gel electrophoresis. After electrophoresis, the proteins were transferred to polyvinylidene fluoride membranes, and the membranes were blocked with 5% skim milk in Tris-buffered saline solution containing 0.1% Tween-20. The membranes were then immunoblotted with primary antibodies, anti-phospho-p38, anti-p38, anti-phospho-ERK, anti-ERK, and anti-f3-actin (Santa Cruz Biotechnology, USA), followed by incubation with horseradish peroxidase-conjugated anti-rabbit or anti-mouse secondary antibodies (Stressgen, USA). […]

CC(C)=CCC[C@](C)(O)[C@H]1CC[C@]2(C)[C@@H]1[C@H](O)C[C@@H]1[C@@]3(C)CC[C@H](O[C@@H]4O[C@H](CO)[C@@H](O)[C@H](O)[C@H]4O[C@@H]4O[C@H](CO)[C@@H](O)[C@H](O)[C@H]4O)C(C)(C)[C@@H]3CC[C@]12C [ginsenoside Rg3]
clathrin-mediated Aβ42 endocytosis (clathrin mRNA) (clathrin): promoted Aβ42 uptake into HMO6 cells via a caveolin1 and clathrin-mediated endocytic mechanism | NEP expression in cells (NEP): distinctively expressed
